Values after ≈ are worked out from the molar mass of the structure shown. Where two headings read alike, the source gives them in different places.
Assays:
Escherichia coli Δ acrAB = test: MIC against E. coli 1411 and AcrAB efflux pump deficient E. coli SM1411Δ acrAB; assay type: cell-based
Method: (§1) The MIC of the rhodanines and control antibiotics, in the presence of a sub-inhibitory concentration of colistin or polymixin B nonapeptide (PMBN), against Gram-negative bacteria was evaluated as described before. The antibacterial activity of the rhodanines was further investigated against E. coli SM1411Δ acrAB, a strain that is deficient in the multidrug-resistant AcrAB efflux pump, as described before.

Pseudomonas aeruginosa [1] = test: MIC with/without PMBN, Pseudomonas aeruginosa; assay type: cell-based
Method: as §1

Salmonella Typhimurium [2] = test: MIC with/without PMBN, Salmonella Typhimurium; assay type: cell-based
Method: as §1

B. licheniformis = test: Broth microdilution MIC/MBC, B. licheniformis; assay type: cell-based; conditions: Bacillus licheniformis; for MBC: read-out: MBC; for MIC: read-out: MIC
[3] = tested on: vancomycin resistant enterococci (VRE); test: Broth microdilution MIC50/MIC90, VRE panel; assay type: cell-based; conditions: Enterococcus, 10 VRE strains
Mycobacterium smegmatis = test: Broth microdilution MIC/MBC, Mycobacterium smegmatis; assay type: cell-based; conditions: Mycolicibacterium smegmatis, ATCC14468, M. Smegmatis ATCC 14468
Acinetobacter baumannii = test: MIC with/without sub-MIC colistin, Acinetobacter baumannii; assay type: cell-based
Method: as §1

Escherichia coli O157:H7 = test: MIC with/without PMBN, Escherichia coli O157:H7; assay type: cell-based
Method: as §1

B. cereus = test: Broth microdilution MIC/MBC, B. cereus; assay type: cell-based; conditions: Bacillus cereus; for MBC: read-out: MBC; for MIC: read-out: MIC
Text: The broth microdilution technique was used, followed by subculturing on agar plates that were rhodanine—free.

Bacillus Strains = test: Broth microdilution MIC50/MIC90 and MIC range, Bacillus strains panel; assay type: cell-based, Bacillus spp.; conditions: 10 Bacillus strains
Text: The broth microdilution technique was used, followed by subculturing on agar plates that were rhodanine—free. […] The MICs reported represent the lowest concentration of each compound necessary to inhibit bacterial growth and the MBCs represent the lowest concentration required to reduce the initial bacterial inoculum by ≥ 99.9%.

Pseudomonas aeruginosa [4] = test: MIC with/without sub-MIC colistin, Pseudomonas aeruginosa; assay type: cell-based
Method: as §1

Klebsiella pneumoniae = test: MIC with/without sub-MIC colistin, Klebsiella pneumoniae; assay type: cell-based
Method: as §1

Salmonella Typhimurium [5] = test: MIC with/without sub-MIC colistin, Salmonella Typhimurium; assay type: cell-based
Method: as §1

[6] = Salmonella enterica, ATCC 700720 / TYPHIMURIUM
[7] = NCIB9375, B. licheniformis Gibson 46 (NCIB 9375) NR-2494
[8] = NRS712, B. licheniformis NRS 712 NR-2499
[9] = NRS201, B. cereus NRS 201 NR-2488

CC(=O)NC[C@H]1CN(c2ccc(N3CCOCC3)c(F)c2)C(=O)O1 [Linezolid, linezolid, reference compound] was tested, and the MIC (Escherichia coli Δ acrAB; E.coli 1411) was > 64 µM, the MIC (Escherichia coli Δ acrAB; E.coli 1411 SM (Δ acrAB, AcrAB efflux pump deficient)) was 16 µM (≈ 5.4 µg/mL) and the MIC (Pseudomonas aeruginosa [1]; Pseudomonas aeruginosa ATCC 9721, PMBN (+) 4 μg/mL, read-out: MIC) was 16 µM (≈ 5.4 µg/mL). The MIC (Pseudomonas aeruginosa [1]; Pseudomonas aeruginosa, ATCC9721) was > 128 µM, the MIC (Salmonella Typhimurium [2]; Salmonella Typhimurium ATCC 700720, PMBN (+) 4 μg/mL, read-out: MIC) was 64 µM (≈ 21.6 µg/mL) and the MIC (Salmonella Typhimurium [2]; [6]) was > 128 µM. The MBC (B. licheniformis; [7]) was 2 µM (≈ 0.675 µg/mL), the MIC (B. licheniformis; [7]) was 1 µM (≈ 0.337 µg/mL) and the MBC (B. licheniformis; [8]) was 4 µM (≈ 1.35 µg/mL). For the same compound, the MIC (B. licheniformis; [8]) was 2 µM (≈ 0.675 µg/mL), the MIC90 ([3]; VRE, read-out: MIC 90) was 2 µM (≈ 0.675 µg/mL) and the MIC50 ([3]; read-out: MIC 50) was 2 µM (≈ 0.675 µg/mL). For the same compound, the MBC (Mycobacterium smegmatis; read-out: MBC) was 8 µM (≈ 2.7 µg/mL), the MIC (Mycobacterium smegmatis; read-out: MIC) was 4 µM (≈ 1.35 µg/mL) and the MIC (Acinetobacter baumannii; Acinetobacter baumannii ATCC BAA747, colistin (+) […], read-out: MIC) was >64 µM. The MIC (Acinetobacter baumannii; Acinetobacter baumannii ATCC BAA19606, colistin (+) […], read-out: MIC) was >64 µM, the MIC (Acinetobacter baumannii; Acinetobacter baumannii, ATCCBAA747) was > 128 µM and the MIC (Acinetobacter baumannii; Acinetobacter baumannii, ATCCBAA19606) was > 128 µM. The MIC (Escherichia coli O157:H7; Escherichia coli O157:H7 ATCC 35150, PMBN (+) 4 μg/mL, read-out: MIC) was >256 µM, the MIC (Escherichia coli O157:H7; Escherichia coli O157:H7 ATCC 700728, PMBN (+) 4 μg/mL, read-out: MIC) was 128 µM (≈ 43.2 µg/mL) and the MIC (Escherichia coli O157:H7; Escherichia coli, ATCC35150) was > 256 µM. For the same compound, the MIC (Escherichia coli O157:H7; Escherichia coli, ATCC700728) was > 128 µM, the MBC (B. cereus; B. cereus BAG1O-2 NR-28582) was 2 µM (≈ 0.675 µg/mL) and the MIC (B. cereus; B. cereus BAG1O-2 NR-28582) was 2 µM (≈ 0.675 µg/mL). For the same compound, the MBC (B. cereus; B. cereus BAG1X1-1 NR-28575) was 1 µM (≈ 0.337 µg/mL), the MIC (B. cereus; B. cereus BAG1X1-1 NR-28575) was < 0.5 µM and the MBC (B. cereus; B. cereus BAG1X2-1 NR-28578) was 2 µM (≈ 0.675 µg/mL). The MIC (B. cereus; B. cereus BAG1X2-1 NR-28578) was 1 µM (≈ 0.337 µg/mL), the MBC (B. cereus; B. cereus G9241 NR-9564) was 1 µM (≈ 0.337 µg/mL) and the MIC (B. cereus; B. cereus G9241 NR-9564) was 1 µM (≈ 0.337 µg/mL). It also gave an MBC (B. cereus; B. cereus VD014 NR-22141) of 4 µM (≈ 1.35 µg/mL), an MIC (B. cereus; B. cereus VD014 NR-22141) of 2 µM (≈ 0.675 µg/mL) and an MBC (B. cereus; B. cereus VD115 NR-22148) of 1 µM (≈ 0.337 µg/mL). The MIC (B. cereus; B. cereus VD115 NR-22148) was < 0.5 µM, the MBC (B. cereus; B. cereus VD148 NR-22150) was 2 µM (≈ 0.675 µg/mL) and the MIC (B. cereus; B. cereus VD148 NR-22150) was 2 µM (≈ 0.675 µg/mL). It also gave an MBC (B. cereus; [9]) of 4 µM (≈ 1.35 µg/mL), an MIC (B. cereus; [9]) of 2 µM (≈ 0.675 µg/mL) and an MIC50 (Bacillus Strains) of 1 µM (≈ 0.337 µg/mL). The MIC90 (Bacillus Strains) was 2 µM (≈ 0.675 µg/mL), the MIC (Pseudomonas aeruginosa [4]; Pseudomonas aeruginosa ATCC 921, colistin (+) […], read-out: MIC) was 64 µM (≈ 21.6 µg/mL) and the MIC (Pseudomonas aeruginosa [4]; Pseudomonas aeruginosa, ATCC921) was > 128 µM. For the same compound, the MIC (Klebsiella pneumoniae; Klebsiella pneumoniae ATCC BAA 2146, colistin (+) […]) was >64 µM, the MIC (Klebsiella pneumoniae; Klebsiella pneumoniae, BAA2146) was > 128 µM and the MIC (Salmonella Typhimurium [5]; Salmonella Typhimurium ATCC 700720, colistin (+) […], read-out: MIC) was >64 µM. For the same compound, the MIC (Salmonella Typhimurium [5]; [6]) was > 128 µM.

Source: article PMC5053523, “In Vitro Antibacterial Activity of Rhodanine Derivatives against Pathogenic Clinical Isolates” (PLoS ONE, 2016)
